Values of other authors as cited in patent publication US20160175335A1, “ANTIFUNGAL COMBINATION THERAPY OF TAVABOROLE AND EFINACONAZOLE” (priority 2014, published 2016).

System: dermatophytes, yeasts and non-dermatophyte molds
Conditions: against dermatophytes

SMILES: C=C1CCN([C@H](C)[C@](O)(Cn2cncn2)c2ccc(F)cc2F)CC1 [Efinaconazole, ((2R,3R)-2-(2,4-difluorophenyl)-3-(4-methylenepiperidin-1yl)-1-(1H-1,2,4-triazol-1-yl)butan-2-ol)]
- effectiveness in vitro compared with other antifungal agents: more effective in vitro than terbinafine, itraconazole, ciclopirox and amorolfine
